In assay [1] the target is T1, hRIPK1 (aa 1-375) fusion protein (Homo sapiens, UniProt Q13546).
T1 construct: hRIPK1 (aa 1-375) fusion protein
T1 sequence (Q13546 1-375): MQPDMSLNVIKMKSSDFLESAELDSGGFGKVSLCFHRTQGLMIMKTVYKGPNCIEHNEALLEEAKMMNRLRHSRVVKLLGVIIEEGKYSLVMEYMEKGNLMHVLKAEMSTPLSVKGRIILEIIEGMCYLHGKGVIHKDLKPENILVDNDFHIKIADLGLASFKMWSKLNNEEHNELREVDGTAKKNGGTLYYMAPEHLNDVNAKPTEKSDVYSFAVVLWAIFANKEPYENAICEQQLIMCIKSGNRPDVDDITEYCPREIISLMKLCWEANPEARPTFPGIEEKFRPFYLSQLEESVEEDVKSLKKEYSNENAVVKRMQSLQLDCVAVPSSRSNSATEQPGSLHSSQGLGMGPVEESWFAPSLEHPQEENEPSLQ
The assay is described as follows: ADP-Glo kinase assay: catalytic activity of RIPK1 (autophosphorylation, conversion of ATP to ADP). In kind it is biochemical. The gist of the method: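 The readout was ADP-Glo luminescence after a 240 min rt autophosphorylation reaction with 50 μM ATP, following 30 min preincubation of 3.6 μg/ml hRIPK1 (aa 1-375) fusion with compound at 33300-1.69 nM final in 1% DMSO. Values came from Levenberg-Marquardt nonlinear fits.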
Background: ADP-Glo turns the ADP formed in a reaction into a luminescent signal.

In a further assay the test system is U937 cells. The assay is described as follows: Cellular assay in U937 cells: activity of RIPK1 inhibitors on TNFα/zVAD.fmk-induced cell death (necroptosis), CellTiter 96 AQueous (MTS) readout. The class given is cell-based. To be noted: Homo sapiens, U-937. The gist of the method:
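Necroptosis was measured by viable-cell MTS reduction (4 h, absorbance 490 nm) after overnight (18–24 h) 37° C culture. Cell suspensions of U937 cells carried TNFα (100 ng/ml) plus zVAD.fmk (50 μM) before compound was added. A 10-point curve (10 μM–0.26 nM or 1 μM–0.07 nM) was run in duplicate, normalised to the control lacking TNFα/zVAD.fmk.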

pIC50: −log10 of the molar value.

Broadly, the pIC50 is −log10 of the IC50, conventionally taken in molar units. Low readings indicate a large IC50, high ones a small IC50. Take `Cc1cc(C)n(C[C@H]2CC[C@H](C(=O)N3OCC[C@H]3c3cc(F)cc(C#N)c3)CC2)n1` [compound 119, trans-3-((S)-2-(4-((3,5-dimethyl-1H-pyrazol-1-yl)methyl)cyclohexane-1-carbonyl)isoxazolidin-3-yl)-5-fluorobenzonitrile]: the pIC50 is 7.57 in assay [1] and 7.27 with U937 cells.

Take `Cc1nc2ccc(C[C@H]3CC[C@H](C(=O)N4OCC[C@H]4c4cc(F)cc(F)c4)CC3)nn2n1` [compound 315, [(3S)-3-(3,5-difluorophenyl)-1,2-oxazolidin-2-yl]-[4-[(2-methyl-[1,2,4]triazolo[1,5-b]pyridazin-6-yl)methyl]cyclohexyl]methanone]: the pIC50 in assay [1] was 8.00; with U937 cells it was 7.70.

As for `Cc1nn(C)cc1-c1cncc(C[C@H]2CC[C@H](C(=O)N3OCC[C@H]3c3cnccn3)CC2)c1` [compound 308, trans-[4-[[5-(1,3-dimethylpyrazol-4-yl)-3-pyridyl]methyl]cyclohexyl]-[(3S)-3-pyrazin-2-ylisoxazolidin-2-yl]methanone], the pIC50 is 7.68 in assay [1] and 7.33 in the assay with U937 cells.

`Cc1nc2ccc(C[C@H]3CC[C@H](C(=O)N4OCC[C@H]4c4cc(F)cc(F)c4)CC3)cn2n1` [compound 223, trans-[(3S)-3-(3,5-difluorophenyl)isoxazolidin-2-yl]-[4-[(2-methyl-[1,2,4]triazolo[1,5-a]pyridin-6-yl)methyl]cyclohexyl]methanone]: the pIC50 in assay [1] is 7.72; with U937 cells, 8.30.

On to `N#Cc1cc(C[C@H]2CC[C@H](C(=O)N3OCC[C@H]3c3cnccn3)CC2)ccc1F` [compound 243, trans-2-fluoro-5-[[4-[(3S)-3-pyrazin-2-ylisoxazolidine-2-carbonyl]cyclohexyl]methyl]benzonitrile], for which the pIC50 in assay [1] is 7.89; in the assay with U937 cells it was 8.52.

Turning to `Cc1ccc(C[C@H]2CC[C@H](C(=O)N3OCC[C@H]3c3cnccn3)CC2)cc1C(N)=O` [compound 138, trans-2-methyl-5-[[4-[(3S)-3-pyrazin-2-ylisoxazolidine-2-carbonyl]cyclohexyl]methyl]benzamide], the negative logarithm of the IC50 (pIC50) in assay [1] was 7.74; in the assay with U937 cells it was 7.60.

Take `Cc1cn2cc(C[C@H]3CC[C@H](C(=O)N4OCC[C@H]4c4cc(F)cc(F)c4)CC3)cc(F)c2n1` [compound 281, trans-[(3S)-3-(3,5-difluorophenyl)isoxazolidin-2-yl]-[4-[(8-fluoro-2-methyl-imidazo[1,2-a]pyridin-6-yl)methyl]cyclohexyl]methanone]: the figures for the pIC50 (in assay [1]; in the assay with U937 cells) were 7.72 and 8.30, respectively.

For the compound `Cc1cn2nc(C[C@H]3CC[C@H](C(=O)N4OCC[C@H]4c4cc(F)cc(F)c4)CC3)cc(C)c2n1` [compound 291, trans-[(3S)-3-(3,5-difluorophenyl)isoxazolidin-2-yl]-[4-[(2,8-dimethylimidazo[1,2-b]pyridazin-6-yl)methyl]cyclohexyl]methanone], the pIC50 in assay [1] was 7.92; in the assay with U937 cells it was 9.00.

As to `Cc1nc([C@@H]2CCON2C(=O)[C@H]2CC[C@H](Cn3ncc4ccc(C(N)=O)cc43)CC2)cs1` [Compound 234, trans-1-[[4-[(3S)-3-(2-methylthiazol-4-yl)isoxazolidine-2-carbonyl]cyclohexyl]methyl]indazole-6-carboxamide], the figures for the pIC50 (in assay [1]; with U937 cells) were 7.31 and 6.90, respectively.

On to `Cc1ccc([C@@H]2CCON2C(=O)[C@H]2CC[C@H](Cc3ccnn3C)CC2)cn1` [compound 397, trans-[4-[(2-methylpyrazol-3-yl)methyl]cyclohexyl]-[(3S)-3-(6-methylpyridin-3-yl)-1,2-oxazolidin-2-yl]methanone], for which the pIC50 was 7.21 in assay [1] and 6.79 in the assay on U937 cells.

`Cc1nc2c(C)cc(C[C@H]3CC[C@H](C(=O)N4OCC[C@H]4c4csc(C)n4)CC3)cn2n1` [compound 361, trans-[4-(2,8-Dimethyl-[1,2,4]triazolo[1,5-a]352yridine-6-ylmethyl)-cyclohexyl]-[(S)-3-(2-methyl-thiazol-4-yl)-isoxazolidin-2-yl]-methanone]: the pIC50 in assay [1] was 7.24; with U937 cells it was 7.46.

With `Cc1c(C#N)ncn1C[C@H]1CC[C@H](C(=O)N2OCC[C@H]2c2cc(F)cc(C#N)c2)CC1` [compound 90, trans-1-((4-((S)-3-(3-cyano-5-fluorophenyl)isoxazolidine-2-carbonyl)cyclohexyl)methyl)-5-methyl-1H-imidazole-4-carbonitrile], the pIC50 in assay [1] was 7.12; with U937 cells, 6.83.

`N#Cc1cc(F)cc([C@@H]2CCON2C(=O)[C@H]2CC[C@H](Cn3cnc4c(F)cc(C(N)=O)cc43)CC2)c1` [compound 80, trans-1-((4-((S)-3-(3-cyano-5-fluorophenyl)isoxazolidine-2-carbonyl)cyclohexyl)methyl)-4-fluoro-1H-benzo[d]imidazole-6-carboxamide]: the pIC50 is 7.22 in assay [1] and 6.13 in the assay on U937 cells.

In the case of `Cc1cc(C[C@H]2CC[C@H](C(=O)N3OCC[C@H]3c3cnccn3)CC2)cn2c(C)nnc12` [compound 301, trans-[4-[(3,8-dimethyl-[1,2,4]triazolo[4,3-a]pyridin-6-yl)methyl]cyclohexyl]-[(3S)-3-pyrazin-2-yl-1,2-oxazolidin-2-yl]methanone], the pIC50 in assay [1] is 7.48; with U937 cells, 7.47.

As for `O=C([C@H]1CC[C@H](Cc2ccc(CCO)c(F)c2)CC1)N1OCC[C@H]1c1cc(F)cc(F)c1` [compound 280, trans-[(3S)-3-(3,5-difluorophenyl)isoxazolidin-2-yl]-[4-[[3-fluoro-4-(2-hydroxyethyl)phenyl]methyl]cyclohexyl]methanone], the pIC50 in assay [1] was 7.89; in the assay with U937 cells, 8.15.

With `Cc1ncc(C[C@H]2CC[C@H](C(=O)N3OCC[C@H]3c3cc(F)cc(F)c3)CC2)cc1C#N` [compound 267, trans-5-[[4-[(3S)-3-(3,5-difluorophenyl)isoxazolidine-2-carbonyl]cyclohexyl]methyl]-2-methyl-pyridine-3-carbonitrile], the negative-log IC50 (pIC50) is 7.92 in assay [1] and 8.70 with U937 cells.

As to `Cc1nc2ccc(C[C@H]3CC[C@H](C(=O)N4OCC[C@H]4c4cc(C#N)ccc4F)CC3)cn2n1` [compound 289, trans-4-fluoro-3-[(3S)-2-[4-[(2-methyl-[1,2,4]triazolo[1,5-a]pyridin-6-yl)methyl]cyclohexanecarbonyl]isoxazolidin-3-yl]benzonitrile], the negative logarithm of the IC50 (pIC50) in assay [1] was 7.44; in the assay on U937 cells, 6.13.

In the case of `Cc1ccc([C@@H]2CCON2C(=O)[C@H]2CC[C@H](Cc3ccc4nc(N)nn4c3)CC2)cn1` [compound 391, [4-[(2-amino-[1,2,4]triazolo[1,5-a]pyridin-6-yl)methyl]cyclohexyl]-[(3S)-3-(6-methylpyridin-3-yl)-1,2-oxazolidin-2-yl]methanone], the pIC50 was 7.20 in assay [1] and 7.19 in the assay on U937 cells.

As for `N#Cc1cc(F)cc([C@@H]2CCON2C(=O)[C@H]2CC[C@H](Cn3cnc4c(F)cc(C#N)cc43)CC2)c1` [compound 36, trans-1-((4-((S)-3-(3-cyano-5-fluorophenyl)isoxazolidine-2-carbonyl)cyclohexyl)methyl)-4-fluoro-1H-benzo[d]imidazole-6-carbonitrile], the negative logarithm of the IC50 (pIC50) in assay [1] was 7.64; in the assay on U937 cells, 7.70.

Consider `O=C([C@H]1CC[C@H](Cc2ccc(CO)c(F)c2)CC1)N1OCC[C@H]1c1cc(F)cc(F)c1` [compound 265, trans-[(3S)-3-(3,5-difluorophenyl)isoxazolidin-2-yl]-[4-[[3-fluoro-4-(hydroxymethyl)phenyl]methyl]cyclohexyl]methanone], for which the pIC50 is 8.10 in assay [1] and 9.00 with U937 cells.

As for `Cn1cc(C[C@H]2CC[C@H](C(=O)N3OCC[C@H]3c3cncc(C#N)c3)CC2)cn1` [compound 235, trans-5-[(3S)-2-[4-[(1-methylpyrazol-4-yl)methyl]cyclohexanecarbonyl]isoxazolidin-3-yl]pyridine-3-carbonitrile], the pIC50 was 7.46 in assay [1] and 6.82 in the assay on U937 cells.

As for `O=C([C@H]1CC[C@H](Cn2cnc3cc(F)ccc32)CC1)N1OCC[C@H]1c1cc(F)cc(F)c1` [compound 49, trans-((S)-3-(3,5-difluorophenyl)isoxazolidin-2-yl)(4-((5-fluoro-1H-benzo[d]imidazol-1-yl)methyl)cyclohexyl)methanone], the figures for the pIC50 (in assay [1]; with U937 cells) were 7.68 and 8.10, respectively.

In the case of `Cc1cc(C[C@H]2CC[C@H](C(=O)N3OCC[C@H]3c3cncc(F)c3)CC2)cn2ncnc12` [compound 336, trans-[(3S)-3-(5-fluoropyridin-3-yl)-1,2-oxazolidin-2-yl]-[4-[(8-methyl-[1,2,4]triazolo[1,5-a]pyridin-6-yl)methyl]cyclohexyl]methanone], the results for the pIC50 (in assay [1]; with U937 cells) were 7.77 and 8.00, respectively.

Take `N#Cc1cc(F)cc([C@@H]2CCON2C(=O)[C@H]2CC[C@H](Cc3cc(F)c4c(c3)C(=O)NC4)CC2)c1` [compound 219, trans-3-fluoro-5-[(3S)-2-[4-[(7-fluoro-3-oxo-isoindolin-5-yl)methyl]cyclohexanecarbonyl]isoxazolidin-3-yl]benzonitrile]: the pIC50 was 7.77 in assay [1] and 8.52 in the assay with U937 cells.
